Data from the supplement of paper PMC10307832.

What was measured:
Experiment in all cases: relative viability (nuclei count vs DMSO), 5 days (fraction); higher = more cells survive
NCI-H1734 = test system: NCI-H1734
Outline: (§1)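 Five library-drug doses in √10 steps were combined with a fixed anchor-drug dose, or a single drug was given alone, by pin tool to lung cancer cell lines in 1536-well plates the day after seeding. Nuclei were stained and counted after 5 days. Relative viability is the nuclei count in treated wells over that in vehicle wells, taken as the median of duplicate plates.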

NCI-H1395 = test system: NCI-H1395
Outline: as §1

NCI-H1793 = test system: NCI-H1793
Outline: as §1

HOP-62 = test system: HOP-62
Outline: as §1

NCI-H2342 = test system: NCI-H2342
Outline: as §1

NCI-H1755 = test system: NCI-H1755
Outline: as §1

SK-MES-1 = test system: SK-MES-1
Outline: as §1

NCI-H2009 = test system: NCI-H2009
Outline: as §1

NCI-H647 = test system: NCI-H647
Outline: as §1

UMC-11 = test system: UMC-11
Outline: as §1

COR-L 105 = test system: COR-L 105
Outline: as §1

NCI-H358 = test system: NCI-H358
Outline: as §1

NCI-H2228 = test system: NCI-H2228
Outline: as §1

PC-14 = test system: PC-14
Outline: as §1

HCC-15 = test system: HCC-15
Outline: as §1

HARA = test system: HARA
Outline: as §1

NCI-H838 = test system: NCI-H838
Outline: as §1

COR-L23 = test system: COR-L23
Outline: as §1

NCI-H2347 = test system: NCI-H2347
Outline: as §1

NCI-H1993 = test system: NCI-H1993
Outline: as §1

NCI-H1355 = test system: NCI-H1355
Outline: as §1

EKVX = test system: EKVX
Outline: as §1

NCI-H2170 = test system: NCI-H2170
Outline: as §1

SMILES: NC(=O)Nc1cc(-c2cccc(F)c2)sc1C(=O)N[C@H]1CCCNC1 [AZD7762] + Nc1nc2[nH]cc(CCc3ccc(C(=O)N[C@@H](CCC(=O)O)C(=O)O)cc3)c2c(=O)[nH]1 [Pemetrexed] (partner 0.2 µM)
- relative viability (NCI-H1734; first compound 0.01 µM): 0.398
- relative viability (NCI-H1734; first compound 0.03162 µM): 0.353
- relative viability (NCI-H1734; first compound 0.1 µM): 0.334
- relative viability (NCI-H1734; first compound 0.3162 µM): 0.303
- relative viability (NCI-H1734; first compound 1 µM): 0.28
- relative viability (NCI-H1395; first compound 0.01 µM): 0.847
- relative viability (NCI-H1395; first compound 0.03162 µM): 0.768
- relative viability (NCI-H1395; first compound 0.1 µM): 0.641
- relative viability (NCI-H1395; first compound 0.3162 µM): 0.401
- relative viability (NCI-H1395; first compound 1 µM): 0.306
- relative viability (NCI-H1793; first compound 0.01 µM): 0.983
- relative viability (NCI-H1793; first compound 0.03162 µM): 0.956
- relative viability (NCI-H1793; first compound 0.1 µM): 0.954
- relative viability (NCI-H1793; first compound 0.3162 µM): 0.811
- relative viability (NCI-H1793; first compound 1 µM): 0.562
- relative viability (HOP-62; first compound 0.01 µM): 0.359
- relative viability (HOP-62; first compound 0.03162 µM): 0.318
- relative viability (HOP-62; first compound 0.1 µM): 0.264
- relative viability (HOP-62; first compound 0.3162 µM): 0.248
- relative viability (HOP-62; first compound 1 µM): 0.208
- relative viability (NCI-H2342; first compound 0.01 µM): 0.784
- relative viability (NCI-H2342; first compound 0.03162 µM): 0.797
- relative viability (NCI-H2342; first compound 0.1 µM): 0.78
- relative viability (NCI-H2342; first compound 0.3162 µM): 0.755
- relative viability (NCI-H2342; first compound 1 µM): 0.669
- relative viability (NCI-H1755; first compound 0.01 µM): 0.48
- relative viability (NCI-H1755; first compound 0.03162 µM): 0.441
- relative viability (NCI-H1755; first compound 0.1 µM): 0.401
- relative viability (NCI-H1755; first compound 0.3162 µM): 0.36
- relative viability (NCI-H1755; first compound 1 µM): 0.277
- relative viability (SK-MES-1; first compound 0.01 µM): 1.01
- relative viability (SK-MES-1; first compound 0.03162 µM): 0.914
- relative viability (SK-MES-1; first compound 0.1 µM): 0.86
- relative viability (SK-MES-1; first compound 0.3162 µM): 0.433
- relative viability (SK-MES-1; first compound 1 µM): 0.237
- relative viability (NCI-H2009; first compound 0.01 µM): 1
- relative viability (NCI-H2009; first compound 0.03162 µM): 1.02
- relative viability (NCI-H2009; first compound 0.1 µM): 1.03
- relative viability (NCI-H2009; first compound 0.3162 µM): 0.888
- relative viability (NCI-H2009; first compound 1 µM): 0.783
- relative viability (NCI-H647; first compound 0.01 µM): 0.146
- relative viability (NCI-H647; first compound 0.03162 µM): 0.128
- relative viability (NCI-H647; first compound 0.1 µM): 0.108
- relative viability (NCI-H647; first compound 0.3162 µM): 0.0887
- relative viability (NCI-H647; first compound 1 µM): 0.0641
- relative viability (UMC-11; first compound 0.01 µM): 0.833
- relative viability (UMC-11; first compound 0.03162 µM): 0.797
- relative viability (UMC-11; first compound 0.1 µM): 0.782
- relative viability (UMC-11; first compound 0.3162 µM): 0.495
- relative viability (UMC-11; first compound 1 µM): 0.369
- relative viability (COR-L 105; first compound 0.01 µM): 0.961
- relative viability (COR-L 105; first compound 0.03162 µM): 1.11
- relative viability (COR-L 105; first compound 0.1 µM): 0.913
- relative viability (COR-L 105; first compound 0.3162 µM): 0.87
- relative viability (COR-L 105; first compound 1 µM): 0.579
- relative viability (NCI-H358; first compound 0.01 µM): 0.23
- relative viability (NCI-H358; first compound 0.03162 µM): 0.188
- relative viability (NCI-H358; first compound 0.1 µM): 0.19
- relative viability (NCI-H358; first compound 0.3162 µM): 0.149
- relative viability (NCI-H358; first compound 1 µM): 0.128
- relative viability (NCI-H2228; first compound 0.01 µM): 0.279
- relative viability (NCI-H2228; first compound 0.03162 µM): 0.328
- relative viability (NCI-H2228; first compound 0.1 µM): 0.293
- relative viability (NCI-H2228; first compound 0.3162 µM): 0.299
- relative viability (NCI-H2228; first compound 1 µM): 0.2
- relative viability (PC-14; first compound 0.01 µM): 0.133
- relative viability (PC-14; first compound 0.03162 µM): 0.0943
- relative viability (PC-14; first compound 0.1 µM): 0.0891
- relative viability (PC-14; first compound 0.3162 µM): 0.0706
- relative viability (PC-14; first compound 1 µM): 0.0517
- relative viability (HCC-15; first compound 0.01 µM): 0.213
- relative viability (HCC-15; first compound 0.03162 µM): 0.234
- relative viability (HCC-15; first compound 0.1 µM): 0.232
- relative viability (HCC-15; first compound 0.3162 µM): 0.209
- relative viability (HCC-15; first compound 1 µM): 0.187
- relative viability (HARA; first compound 0.01 µM): 0.23
- relative viability (HARA; first compound 0.03162 µM): 0.25
- relative viability (HARA; first compound 0.1 µM): 0.198
- relative viability (HARA; first compound 0.3162 µM): 0.16
- relative viability (HARA; first compound 1 µM): 0.164
- relative viability (NCI-H838; first compound 0.01 µM): 0.25
- relative viability (NCI-H838; first compound 0.03162 µM): 0.192
- relative viability (NCI-H838; first compound 0.1 µM): 0.177
- relative viability (NCI-H838; first compound 0.3162 µM): 0.177
- relative viability (NCI-H838; first compound 1 µM): 0.167
- relative viability (COR-L23; first compound 0.01 µM): 0.191
- relative viability (COR-L23; first compound 0.03162 µM): 0.185
- relative viability (COR-L23; first compound 0.1 µM): 0.181
- relative viability (COR-L23; first compound 0.3162 µM): 0.168
- relative viability (COR-L23; first compound 1 µM): 0.131
- relative viability (NCI-H2347; first compound 0.01 µM): 0.448
- relative viability (NCI-H2347; first compound 0.03162 µM): 0.395
- relative viability (NCI-H2347; first compound 0.1 µM): 0.455
- relative viability (NCI-H2347; first compound 0.3162 µM): 0.403
- relative viability (NCI-H2347; first compound 1 µM): 0.329
- relative viability (NCI-H1993; first compound 0.01 µM): 0.559
- relative viability (NCI-H1993; first compound 0.03162 µM): 0.487
- relative viability (NCI-H1993; first compound 0.1 µM): 0.602
- relative viability (NCI-H1993; first compound 0.3162 µM): 0.586
- relative viability (NCI-H1993; first compound 1 µM): 0.578
- relative viability (NCI-H1355; first compound 0.01 µM): 1.07
- relative viability (NCI-H1355; first compound 0.03162 µM): 1.03
- relative viability (NCI-H1355; first compound 0.1 µM): 1.08
- relative viability (NCI-H1355; first compound 0.3162 µM): 0.708
- relative viability (NCI-H1355; first compound 1 µM): 0.709
- relative viability (EKVX; first compound 0.01 µM): 0.394
- relative viability (EKVX; first compound 0.03162 µM): 0.346
- relative viability (EKVX; first compound 0.1 µM): 0.248
- relative viability (EKVX; first compound 0.3162 µM): 0.208
- relative viability (EKVX; first compound 1 µM): 0.152
- relative viability (NCI-H2170; first compound 0.01 µM): 0.272
- relative viability (NCI-H2170; first compound 0.03162 µM): 0.264
- relative viability (NCI-H2170; first compound 0.1 µM): 0.285
- relative viability (NCI-H2170; first compound 0.3162 µM): 0.236
- relative viability (NCI-H2170; first compound 1 µM): 0.21
